From PubChem BioAssay AID180 (DTP/NCI, 2004) come the findings set out here.

Several values for one entry are separate records, joined by “and”; a condition that tells them apart may be missing. Equal values may be shown once.

The test system of this assay is BDF1 mice, Adenocarcinoma 755 s.c., tumor weight T/C. In words: NCI In Vivo Anticancer Drug Screen. Data for tumor model Adenocarcinoma 755 (subcutaneous) in B6D2F1 (BDF1) mice. As to conditions: endpoint: mean tumor weight, schedule: Q01DX011 (ip), higher = larger tumour. Here is the method: The antitumor activity of compounds was measured in mice bearing transplantable tumors. Survival or tumor size were measured and the results are expressed as the measurement made in the treated group (T) divided by the measurement made in the vehicle treated control group (C). The tumor model used in this assay is Adenocarcinoma 755 (subcutaneous) in B6D2F1 (BDF1) mice

Where [1] appears, read: dose: 25.0 mg/kg/injection, vehicle: methylcellulose (MC).
[2] abbreviates: dose: 75.0 mg/kg/injection, vehicle: methylcellulose (MC).
Where [3] appears, read: dose: 225.0 mg/kg/injection, vehicle: methylcellulose (MC).
Where [4] appears, read: dose: 100.0 mg/kg/injection, vehicle: saline.
Where [5] appears, read: dose: 30.0 mg/kg/injection, vehicle: carboxymethylcellulose (CMC).
Setting [6] is: dose: 60.0 mg/kg/injection, vehicle: carboxymethylcellulose (CMC).
The mark [7] stands for this setting: dose: 50.0 mg/kg/injection, vehicle: carboxymethylcellulose (CMC).
The mark [8] stands for this setting: dose: 15.0 mg/kg/injection, vehicle: methylcellulose (MC).
Where [9] appears, read: dose: 31.0 mg/kg/injection, vehicle: methylcellulose (MC).
Where [10] appears, read: dose: 62.0 mg/kg/injection, vehicle: methylcellulose (MC).
Setting [11] is: dose: 125.0 mg/kg/injection, vehicle: methylcellulose (MC).
[12] abbreviates: dose: 250.0 mg/kg/injection, vehicle: methylcellulose (MC).

On to `Cc1ccc2c(c1)CCCN2C(=O)CCCl`, for which the T/C by setting is: under setting [1], 101 % of control; under setting [2], 40 % of control; under setting [3], 60 % of control.
On to `Cc1ccccc1CNc1ncnc2[nH]ncc12`, for which the T/C by setting is: (dose: 5.0 mg/kg/injection, vehicle: saline) 79 % of control; (dose: 10.0 mg/kg/injection, vehicle: saline) 60 % of control; (dose: 25.0 mg/kg/injection, vehicle: saline) 29 % of control; under setting [4], 4 % of control; (dose: 125.0 mg/kg/injection, vehicle: saline) 9 % of control.
In the case of `Oc1ccc2ccccc2c1-c1c(O)ccc2ccccc12`, the T/C reads like this: (dose: 12.6 mg/kg/injection, vehicle: other) 79 % of control; (dose: 25.0 mg/kg/injection, vehicle: other) 71 % of control; (dose: 50.0 mg/kg/injection, vehicle: other) 41 % of control.
In the case of `O=C(N/N=C\c1ccc(Br)cc1)c1ccncc1`, the T/C is 52 % of control (dose: 30.0 mg/kg/injection, vehicle: methylcellulose (MC)); 52 % of control (dose: 60.0 mg/kg/injection, vehicle: methylcellulose (MC)); 62 % of control (dose: 120.0 mg/kg/injection, vehicle: methylcellulose (MC)); 37 % of control (dose: 240.0 mg/kg/injection, vehicle: methylcellulose (MC)); 64 % of control (dose: 500.0 mg/kg/injection, vehicle: methylcellulose (MC)).
As to `Cn1c(N)nc2c(ncn2C2CC(O)C(CO)O2)c1=O` (centres undefined), the T/C reads like this: under setting [5], 109 % of control; under setting [6], 82 % of control; (dose: 120.0 mg/kg/injection, vehicle: carboxymethylcellulose (CMC)) 89 % of control.
In the case of `CNc1ncnc2c1ncn2C1CC(O)C(CO)O1` (centres undefined), the T/C (dose: 60.0 mg/kg/injection, vehicle: saline) is 92 % of control and the T/C (dose: 120.0 mg/kg/injection, vehicle: saline) was 94 % of control.
For the compound `Cc1cc(C)c(/C=N/Nc2nc3c(c(=O)n(C)c(=O)n3C)n2C)c(C)c1`, the T/C runs as follows: under setting [5], 68 % of control; under setting [6], 106 % of control.
For `Cn1c(=O)c2[nH]c(COCc3nc4c([nH]3)c(=O)n(C)c(=O)n4C)nc2n(C)c1=O`, the T/C by setting is: under setting [1], 48 % of control; under setting [2], 65 % of control; under setting [3], 21 % of control.
Regarding `c1ccc(CSc2ncnc3nc[nH]c23)nc1`, the T/C by setting is: (dose: 0.75 mg/kg/injection, vehicle: carboxymethylcellulose (CMC)) 102 % of control; (dose: 1.5 mg/kg/injection, vehicle: carboxymethylcellulose (CMC)) 40 % of control; (dose: 3.0 mg/kg/injection, vehicle: carboxymethylcellulose (CMC)) 26 % of control; (dose: 6.0 mg/kg/injection, vehicle: carboxymethylcellulose (CMC)) 9 % of control; (dose: 12.0 mg/kg/injection, vehicle: carboxymethylcellulose (CMC)) 7 % of control; under setting [7], 5 % of control. The T/C (dose: 100.0 mg/kg/injection, vehicle: carboxymethylcellulose (CMC)) was 4 % of control.
Take `Cc1cnc(SCc2ccc(Cl)cc2)[nH]c1=O`: the T/C under setting [8] is 74 % of control; the T/C under setting [9] was 84 % of control; the T/C under setting [10] is 57 % of control; the T/C under setting [11] was 49 % of control; the T/C under setting [12] was 81 % of control.
`Cc1ccccc1Nc1cc(=S)nc(N)[nH]1`: the T/C under setting [8] was 122 % of control, the T/C under setting [9] was 91 % of control, the T/C under setting [10] was 92 % of control and the T/C under setting [12] was 84 % of control.
Turning to `CCOCCNc1ncnc2c1cnn2C`, the T/C (dose: 12.5 mg/kg/injection, vehicle: methylcellulose (MC)) is 112 % of control; the T/C under setting [1] was 65 % of control; the T/C (dose: 50.0 mg/kg/injection, vehicle: methylcellulose (MC)) is 38 % of control; the T/C (dose: 100.0 mg/kg/injection, vehicle: methylcellulose (MC)) was 17 % of control.
Consider `Cc1cc(Nc2cccc(Cl)c2)nc(N)n1`, for which the T/C under setting [8] was 114 % of control and the T/C under setting [9] is 56 % of control.
`O=C(CCCl)N1CCN(c2ccccc2)CC1`: the T/C by setting is: under setting [1], 51 % of control; under setting [2], 61 % of control; under setting [3], 60 % of control.
Consider `O=S=Nc1ccccc1`, for which the T/C (dose: 351.0 mg/kg/injection, vehicle: carboxymethylcellulose (CMC)) is 64 % of control.
As to `CNc1nc(SCc2ccccc2)ncc1C`, the T/C was 60 % of control under setting [9], 82 % of control under setting [11] and 52 % of control under setting [12].
Take `O=S(=O)(F)c1nc(Cl)c2[nH]cnc2n1`: the T/C (dose: 6.2 mg/kg/injection, vehicle: methylcellulose (MC)) was 117 % of control.
As to `Nc1nc2ncc(CNc3ccc(C(=O)NC(CCC(=O)O)C(=O)O)cc3)nc2c(=O)[nH]1` (centres undefined), the T/C was 78 % of control (dose: 6.95 mg/kg/injection, vehicle: carboxymethylcellulose (CMC)); 77 % of control (dose: 13.9 mg/kg/injection, vehicle: carboxymethylcellulose (CMC)); 221 % of control and 79 % of control (dose: 17.38 mg/kg/injection, vehicle: carboxymethylcellulose (CMC)); 63 % of control (dose: 22.24 mg/kg/injection, vehicle: carboxymethylcellulose (CMC)); 52 % of control and 60 % of control and 75 % of control (dose: 27.8 mg/kg/injection, vehicle: carboxymethylcellulose (CMC)); 65 % of control (dose: 34.75 mg/kg/injection, vehicle: carboxymethylcellulose (CMC)). Also, the T/C was 70 % of control (dose: 40.0 mg/kg/injection, vehicle: carboxymethylcellulose (CMC)); 50 % of control under setting [7]; 33 % of control and 55 % of control (dose: 55.6 mg/kg/injection, vehicle: carboxymethylcellulose (CMC)); 27 % of control under setting [6]; 68 % of control (dose: 65.0 mg/kg/injection, vehicle: carboxymethylcellulose (CMC)).
On to `NNC(=O)CCC(N)C(=O)O` (centres undefined), for which the T/C is 121 % of control (dose: 10.21 mg/kg/injection, vehicle: carboxymethylcellulose (CMC)); 91 % of control (dose: 13.0 mg/kg/injection, vehicle: carboxymethylcellulose (CMC)); 96 % of control (dose: 20.42 mg/kg/injection, vehicle: carboxymethylcellulose (CMC)); 60 % of control (dose: 26.0 mg/kg/injection, vehicle: carboxymethylcellulose (CMC)); 151 % of control (dose: 40.85 mg/kg/injection, vehicle: carboxymethylcellulose (CMC)); 97 % of control (dose: 43.05 mg/kg/injection, vehicle: carboxymethylcellulose (CMC)). Besides, the T/C is 70 % of control (dose: 52.0 mg/kg/injection, vehicle: carboxymethylcellulose (CMC)); 67 % of control (dose: 81.7 mg/kg/injection, vehicle: carboxymethylcellulose (CMC)); 98 % of control (dose: 86.1 mg/kg/injection, vehicle: carboxymethylcellulose (CMC)); 56 % of control (dose: 104.0 mg/kg/injection, vehicle: carboxymethylcellulose (CMC)).
Turning to `CCCCCCOP(=O)(N1CC1C)N1CC1C` (centres undefined), the T/C was 100 % of control (dose: 12.5 mg/kg/injection, vehicle: saline); 13 % of control and 19 % of control and 26 % of control under setting [4].

Broadly, the T/C is the ratio of treated to control.
